In paper PMC4736156 (Drug delivery and translational research, 2016):
Where “and” joins values, the source holds several entries; their conditions need not be identical. Identical values can stand only once. Counter-ions that a name gives are not always drawn.

Key:
[1] = in vivo; cited from earlier work
[2] = target: recombinant HIV-1 PR (Human immunodeficiency virus type 1 group M subtype B, UniProt P04585); assay: FRET-based HIV-1 PR inhibition assay; type: biochemical; details: FRET substrate 5.0 µM, HIV-1 PR 35.2 nM, 37 °C, mean ± s.d., n = 3
[3] = test system: MT-2 cells
[4] = in serum; ref [16]; cited from earlier work
[5] = test system: HIV; details: tenofovir gel formulation, vaginal mucosa, CAPRISA 004; ref [4],[5]; cited from earlier work
[6] = Penetration and retention in mouse colorectal mucosa after rectal dosing; type: in vivo; details: mice, rectal 200 µl of 30 µM; at 2 h and 1 d; result in words

Compound: CC(Cn1cnc2c(N)ncnc21)OCP(=O)(O)OP(=O)(O)OP(=O)(O)O (stereo in doubt) [tenofovir diphosphate]
- vaginal concentrations in tissue after daily gel administration [1]: about 1000 fmol/mg

Compound: CC(C)CN(C[C@@H](O)[C@H](Cc1ccccc1)NC(=O)O[C@H]1CCOC1)S(=O)(=O)c1ccc(N)cc1 [APV, amprenavir]
- rate constant kobs of FRET substrate cleavage (slope of ln(F∞ – Ft) vs time) ([2]; 1.0 µM APV): −0.1638 (± 0.0080) min^−1 and −0.1638 (± 0.007995) min^−1
- rate constant kobs of FRET substrate cleavage (slope of ln(F∞ – Ft) vs time) ([2]; 2.0 µM APV): −0.0890 (± 0.0049) min^−1 and −0.0890 (± 0.004938) min^−1
- rate constant kobs of FRET substrate cleavage (slope of ln(F∞ – Ft) vs time) ([2]; 5.0 µM APV): −0.03766 (± 0.0019) min^−1 and −0.03766 (± 0.00191) min^−1
- cell viability compared to untreated cells [3]: no statistical difference in comparison to untreated cells

Compound: CC(C)OC(=O)OCOP(=O)(CO[C@H](C)Cn1cnc2c(N)ncnc21)OCOC(=O)OC(C)C [TDF, tenofovir disoproxil fumarate]
- half-life [4]: about 17 hours

Compound: C[C@H](Cn1cnc2c(N)ncnc21)OCP(=O)(O)O [tenofovir]
- effectiveness in preventing HIV transmission [5]: 39%

Compound: fluoresceine thiourea [FTU]
- mucosal tissue concentration [6]: negligible
